Consider one molecule from paper PMC11480511 (Scientific Reports, 2024).

Converted amounts (≈) assume the structure as drawn. Read-outs that look alike come from different tables or passages of the source.

In test [1] the test system is K. pneumoniae ATCC 10,031. In words: Antibacterial screening, agar cup diffusion method. The class given is cell-based. Particulars: read-out: Minimum inhibitory concentrations (MIC, µM) K. pneumoniae ATCC 10,031.
A further test has as its system Jurkat cells. Particulars: cited from earlier work.
For a further test, the system named is S. aureus ATCC 6538. In words: Antibacterial screening, agar cup diffusion method. It is filed as cell-based. Particulars: Staphylococcus aureus, ATCC6538; Gram + ve strain; read-out: Minimum inhibitory concentrations (MIC, µM) S. aureus ATCC 6538.
Test [2] concerns P. aeruginosa ATCC 27,853. In words: Antibacterial screening, agar cup diffusion method. Particulars: Pseudomonas aeruginosa, ATCC27; Gram –ve strain; read-out: Minimum inhibitory concentrations (MIC, µM) P. aeruginosa ATCC 27,853. It is filed as cell-based.
In the next test the test system is E. coli ATCC 25,922. In words: Antibacterial screening, agar cup diffusion method. Particulars: Escherichia coli, ATCC25, Gram –ve strain; read-out: Minimum inhibitory concentrations (MIC, µM) E. coli ATCC 25,922. It is filed as cell-based.

Description for E. coli ATCC 25,922: (§1) Anti-bacterial activity of the recently synthesized compounds 3a-k was evaluated at AUMC (Assiut University Mycological Centre), Assiut, Egypt. Assays were done against Gram-negative strains of K. pneumoniae (ATCC 100310, E. coli (ATCC 25922), Pseudomonas aeruginosa (ATCC 27853) and the Gram-positive S. aureus (ATCC 6538) strain utilizing standard agar cup diffusion method. The isolates from the four bacterial species examined were kept in TSB (Trypticase Soya Broth, Becton and Dickinson) with 10% glycerol at -70 °C and then subcultured on TSA (Trypticase Soya Agar, Becton and Dickinson) and TSB for 24 h at 37 °C former to inoculation. Bacterial isolates were then plated on sterile petri plates with 1 × 10^8 CFU/mL (0.5 McFarland turbidity) and 20 mL of Mueller Hinton Agar media (Oxoid) was then loaded. To ensure that the microorganisms were evenly dispersed, the plates were gently rotated before being left to harden on a level surface. Four equally spaced spherical-shaped wells (10 mm diameter) were painstakingly drilled using a sterilized cork bore after media solidification. All tested compounds under test underwent two-fold serial dilutions in a sequential manner. Three replications of 100 µL of each concentration were added to a well using a micropipette. Plates were then incubated for 24-hour at 37 °C. The average of the inhibition zones was then calculated. To determine the MICs, the natural logarithm of each diluted test substance’s concentration was plotted against the average area of the related inhibition zone. Following that, a regression line was created and the intercept on the ‘ln concentration” axis was determined, and the antilogarithm was calculated to indicate the MIC value[34],[63].
Description for S. aureus ATCC 6538: as §1

In the case of `O=C(O)c1cn(C2CC2)c2cc(N3CCNCC3)c(F)cc2c1=O` [Ciprofloxacin, reference compound], the MIC in test [1] (Gram –ve strain) is 0.10 µM (≈ 0.0331 µg/mL); in test [1] (Klebsiella pneumoniae, ATCC10, Gram –ve strain) it was 0.1 µM (≈ 0.0331 µg/mL); in the test with S. aureus ATCC 6538, 5.49 µM; in test [2] it was 0.06 µM (≈ 0.0199 µg/mL); with E. coli ATCC 25,922 it was 0.04 µM (≈ 0.0133 µg/mL). Further, in the test on Jurkat cells (concentration of 25 µg/mL), the “effect on proliferation of Jurkat cells” value is reported as “inhibit the proliferation”. In the test with Jurkat cells (doses higher than 80 µg/mL), the “apoptosis in Jurkat cells” value was “induced apoptosis”.
